Tested on: 883617-216-R-J1-PDC complex spheroid viability
Assay: Anticancer human tumor 883617-216-R-J1-PDC patient-derived bladder carcinoma cell line growth inhibition [POLQ]
Conditions: for IC50: curve of first compound; for viability, T/C: stronger effect = lower value; active = viability on the fitted dose curve at most 10% of control; inactive = the rest
Experimental: Multicellular complex tumor spheroid response to Polymerase (POL) inhibitors (novobiocin, ART-558, RP6685) in combination with a variety of drugs and investigational agents in selected tumor cell lines
The POL inhibitors (novobiocin, ART-558, and RP6685) were evaluated both individually and in combination with standard of care and investigational anticancer small molecules within a complex spheroid model of solid tumors. . Complex spheroids include a stromal component modeled by human endothelial cells (HUVEC) and fibroblasts modeled by human mesenchymal stem cells (MSCs). The concentration ranges selected for each drug and investigational agent were based upon clinically achievable concentrations if the clinical Cmax of the agent was known.
Compounds. The drugs and investigational agents: novobiocin (NSC847541), ART-558 (NSC835418), RP-6685 (NSC848927), peposertib (NSC802822), ceralasertib (NSC780249), elimusertib (NSC800525), camonsertib (NSC841442), AZD-1390 (NSC803789), olaparib (NSC753686), talazoparib (NSC767125), rucaparib (NSC756644), sotorasib (NSC818433), MRTX-1133 (NSC836407), SN-38 (NSC673596), topotecan (NSC609699), epotoside (NSC141540), doxorubicin (NSC123127), gemcitabine (NSC613327), 5-fluorouracil (NSC19893), paclitaxel (NSC125973), vemurafenib (NSC761431), MSA-2 (NSC828583), SN-011 (NSC837082), adavosertib (NSC754352), prexasertib (NSC758257), carboplatin (NSC241240) and oxaliplatin (NSC266046), were obtained from the National Cancer Institute (NCI) Developmental Therapeutics Program Chemical Repository (21). The FDA-approved anticancer drug set is available from the Developmental Therapeutics Program at https://dtp.cancer.gov/organization/dscb/obtaining/. […] The stock solutions were prepared in dimethyl sulfoxide (DMSO, Sigma-Aldrich, St. Louis, MO, cat. D2650), except for the platinum compounds which were prepared in saline (Quality Biological, Gaithersburg, MD, cat. 114-055-101), at 800-fold the tested concentration and stored at -70 degrees C prior to their use. All drugs and investigational agents were tested over a range starting from a high concentration at or near the clinical Cmax and decreasing in half-log increments. If the clinical Cmax for an agent had not been determined, the highest concentration tested was 10 microM, except for SN-38, which was tested at a high concentration of 1 microM.
Cell Culture. All cells were maintained in an incubator at 37 degrees C and 5% CO2 with 95% humidity. The PDC lines were cultured according to standard operating procedures established by the NCI PDMR (https://pdmr.cancer.gov). Table 3 of the manuscript, lists the cell lines along with the number of the three cell types plated to form the mct-spheroids and media for tumor cell growth. After thawing, all PDC lines, except 997537-175-T-J1-PDC and 415267-285-R-J2-PDC, were cultured in Matrigel-coated flasks prepared with a working solution of 1X Ham's F-12 nutrient mix, without supplementation (Thermo Fisher Scientific, cat. 11765054), 100 U/mL penicillin-streptomycin (Thermo Fisher Scientific, cat. 15140122), and 2.5% Matrigel (Corning Inc., Corning, NY, cat. 354248) for the first three passages. The two PDC lines 997537-175-T-J1-PDC and 415267-285-R-J2-PDC were cultured on uncoated flasks. The 857933-349-R-J2-PDC line was cultured in 6C/Colon 1B media containing advanced DMEM/F-12 (Thermo Fisher Scientific, cat. 12634028), 10 mM HEPES (Thermo Fisher Scientific, cat. 15630080), 1X GlutaMAX supplement (Thermo Fisher Scientific, cat. 35050061), 0.1 mg/mL primocin (InvivoGen, San Diego, CA, cat. ant-pm-2), 10% defined fetal bovine serum, heat inactivated (HyClone Laboratories Inc., Logan, UT, cat. SH30070.03HI), 50% L-WRN conditioned media (ATCC, cat. CRL-3276), 1.25 mM N-Acetyl-L-cysteine (Sigma-Aldrich, cat. A9165), 10 mM nicotinamide (Sigma-Aldrich, cat. N0636), 1X B-27 supplement (Thermo Fisher Scientific, cat. 17504044), 1X N-2 supplement (Thermo Fisher Scientific, cat. […]

[1] = second compound 0.0316 µM, first compound 0.0316 µM
[2] = second compound 0.0316 µM, first compound 0.1 µM
[3] = second compound 0.0316 µM, first compound 0.316 µM
[4] = second compound 0.0316 µM, first compound 1 µM
[5] = second compound 0.0316 µM, first compound 3.16 µM
[6] = second compound 0.0316 µM, first compound 10 µM
[7] = second compound 0.1 µM, first compound 0.0316 µM
[8] = second compound 0.1 µM, first compound 0.1 µM
[9] = second compound 0.1 µM, first compound 0.316 µM
[10] = second compound 0.1 µM, first compound 1 µM
[11] = second compound 0.1 µM, first compound 3.16 µM
[12] = second compound 0.1 µM, first compound 10 µM
[13] = second compound 0.316 µM, first compound 0.0316 µM
[14] = second compound 0.316 µM, first compound 0.1 µM
[15] = second compound 0.316 µM, first compound 0.316 µM
[16] = second compound 0.316 µM, first compound 1 µM
[17] = second compound 0.316 µM, first compound 3.16 µM
[18] = second compound 0.316 µM, first compound 10 µM
[19] = second compound 1 µM, first compound 0.0316 µM
[20] = second compound 1 µM, first compound 0.1 µM
[21] = second compound 1 µM, first compound 0.316 µM
[22] = second compound 1 µM, first compound 1 µM
[23] = second compound 1 µM, first compound 3.16 µM
[24] = second compound 1 µM, first compound 10 µM
[25] = second compound 3.16 µM, first compound 0.0316 µM
[26] = second compound 3.16 µM, first compound 0.1 µM
[27] = second compound 3.16 µM, first compound 0.316 µM
[28] = second compound 3.16 µM, first compound 1 µM
[29] = second compound 3.16 µM, first compound 3.16 µM
[30] = second compound 3.16 µM, first compound 10 µM
[31] = second compound 10 µM, first compound 0.0316 µM
[32] = second compound 10 µM, first compound 0.1 µM
[33] = second compound 10 µM, first compound 0.316 µM
[34] = second compound 10 µM, first compound 1 µM
[35] = second compound 10 µM, first compound 3.16 µM
[36] = second compound 10 µM, first compound 10 µM
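Note: spheroids exposed to compounds for seven days before readout.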

CCc1cc2c(N3CCc4c(cc(Cn5ccnc5)cc4-c4cn(C)nc4C(F)(F)F)C3=O)ccnc2c(OC)n1 + Nc1ccc(C#CCN(C(=O)Cc2ncc(C(F)(F)F)cc2C(F)(F)F)c2ccc(F)cc2)nn1
9.57 µM: IC50 (second compound 0.0316 µM)
inactive: viability, T/C [1] 109% | viability, T/C [2] 97.5% | viability, T/C [3] 91.4% | viability, T/C [4] 104% | viability, T/C [5] 80.4% | viability, T/C [6] 48.8% | viability, T/C [7] 91.1% | viability, T/C [8] 109% | viability, T/C [9] 103% | viability, T/C [10] 105% | viability, T/C [11] 86% | viability, T/C [12] 49.8% | viability, T/C [13] 98.8% | viability, T/C [14] 107% | viability, T/C [15] 102% | viability, T/C [16] 91.1% | viability, T/C [17] 84.8% | viability, T/C [18] 59% | viability, T/C [19] 95.6% | viability, T/C [20] 104% | viability, T/C [21] 97.9% | viability, T/C [22] 94.9% | viability, T/C [23] 88.9% | viability, T/C [24] 61% | viability, T/C [25] 109% | viability, T/C [26] 97.7% | viability, T/C [27] 110% | viability, T/C [28] 102% | viability, T/C [29] 82.3% | viability, T/C [30] 69.6% | viability, T/C [31] 105% | viability, T/C [32] 99.6% | viability, T/C [33] 107% | viability, T/C [34] 108% | viability, T/C [35] 82.9% | viability, T/C [36] 57.8%
9.93 µM: IC50 (second compound 0.1 µM)
> 10 µM: IC50 (second compound 0.316 µM) | IC50 (second compound 1 µM) | IC50 (second compound 3.16 µM) | IC50 (second compound 10 µM)

COc1cc(C2c3cc4c(cc3C(OC3OC5COC(C)OC5C(O)C3O)C3COC(=O)C23)OCO4)cc(OC)c1O (centres undefined) + Nc1ccc(C#CCN(C(=O)Cc2ncc(C(F)(F)F)cc2C(F)(F)F)c2ccc(F)cc2)nn1
> 10 µM: IC50 (second compound 0.0316 µM) | IC50 (second compound 0.1 µM) | IC50 (second compound 0.316 µM) | IC50 (second compound 1 µM) | IC50 (second compound 3.16 µM) | IC50 (second compound 10 µM)
inactive: viability, T/C [1] 103% | viability, T/C [2] 99.1% | viability, T/C [3] 65.7% | viability, T/C [4] 82.1% | viability, T/C [5] 67.5% | viability, T/C [6] 60% | viability, T/C [7] 112% | viability, T/C [8] 98.8% | viability, T/C [9] 81% | viability, T/C [10] 75.9% | viability, T/C [11] 69.4% | viability, T/C [12] 59.6% | viability, T/C [13] 104% | viability, T/C [14] 105% | viability, T/C [15] 92.3% | viability, T/C [16] 64.4% | viability, T/C [17] 69.7% | viability, T/C [18] 54% | viability, T/C [19] 104% | viability, T/C [20] 102% | viability, T/C [21] 83.2% | viability, T/C [22] 80% | viability, T/C [23] 87.8% | viability, T/C [24] 62.1% | viability, T/C [25] 91.8% | viability, T/C [26] 117% | viability, T/C [27] 81.8% | viability, T/C [28] 73.2% | viability, T/C [29] 69.1% | viability, T/C [30] 58.6% | viability, T/C [31] 101% | viability, T/C [32] 107% | viability, T/C [33] 92.3% | viability, T/C [34] 75% | viability, T/C [35] 80.7% | viability, T/C [36] 70.5%
